Source: patent publication EP4810508A1, “ARABINOSE DERIVATIVE COMPOUND, AND COMPOSITION COMPRISING SAME FOR PREVENTING OR TREATING DEGENERATIVE BRAIN DISEASES” (Digmbio. Inc., priority 2023, dated 2025)
Where two headings read alike, the source gives them in different places.

Test system: HRE/Luc/HEK293 cells
Assay: HRE (Hypoxia Response Element) luciferase assay
Assay type: cell-based, human
Conditions: for fold induction at 10 µM / fold induction at 100 µM: Homo sapiens, HEK293, 18 h; for HRE expression: low concentration of 1 µM
Procedure: • (a) HRE assay: Confirmation of increased in HRE expression levels by the test substance relative to the vehicle in HRE/Luc/HEK293 cells • * Less than a twofold increase at 100 µM, • ** More than a twofold increase at 100 µM, • *** More than a twofold increase at 10 µM, • **** More than a twofold increase at 1 µM, • Not performed.
It has been reported that in the brains of AD patients, blood supply is mostly insufficient, resulting in oxygen levels being up to 50% lower than those of normal individuals, leading to increased oxidative stress (ROS) and neuroinflammation. It has also been studied that when the HIF-1α (hypoxia inducible factor-1) factor binds to the HRE (hypoxia response element), it increases VEGF (vascular endothelial growth factor), which promotes the formation of new blood vessels, thereby increasing oxygen levels in the brain and helping to inhibit nerve cell damage.
A reporter gene containing luciferase, capable of verifying the level of HRE expression, was inserted into HEK-293 human embryonic kidney cells, and HRE/Luc/HEK293 cells were constructed by inserting a plasmid (HRE/Luc) with luciferase attached downstream of the HRE promoter that binds to HIF-1α using lipofectamine (Invitrogen).
To perform HRE luciferase analysis, HRE/Luc/HEK293 cells were seeded in 96-well culture plates at a cell density of 4 x 10^4 per well in minimal essential medium (MEM) containing 10% fetal bovine serum. After one day, the cell medium was removed and replaced with medium mixed with various concentrations of example compounds. Six hours after compound pretreatment, HRE/Luc/HEK293 cells were cultured under hypoxic conditions (O2 0.1%) for 18 hours. Subsequently, the cells were washed with phosphate buffer, lysed with lysis buffer, and then the luciferase reagent (Promega) for luciferase analysis was added. Afterward, changes in HRE expression levels associated with HIF-1 signaling were evaluated by measuring luminescence using an Infinite200 (Tecan).

[1] = Table 2 (Examples 37-74, 52), read-out: HKt-increasing 10uM
[2] = Table 2 (Examples 37-74, 52), read-out: HKt-increasing 100uM
[3] = Table 2 (Examples 75-109, 114), read-out: HRE-inceasing 10uM
[4] = Table 2 (Examples 75-109, 114), read-out: HRE-inceasing 100uM

| SMILES | fold induction at 10 µM [1] | fold induction at 100 µM [2] | HRE expression | fold induction at 10 µM [3] | fold induction at 100 µM [4] |
| --- | --- | --- | --- | --- | --- |
| COc1ccc(Cc2ccc(O[C@H]3OC[C@H](O)[C@H](O)[C@H]3O)cc2)c(F)c1 [Example 50, (2R,3R,4S,5S)-2-(4-(2-fluoro-4-methoxybenzyl)phenoxy)tetrahydro-2H-pyran-3,4,5-triol] | 1 | 1.4 |  |  |  |
| COc1ccc(Cc2ccc(O[C@H]3OC[C@H](O)[C@H](O)[C@H]3O)c(Cl)c2)cc1 [Example 51, (2R,3R,4S,5S)-2-(2-chloro-4-(4-methoxybenzyl)phenoxy)tetrahydro-2H-pyran-3,4,5-triol] | 1.3 | 2.9 |  |  |  |
| CC(C)c1ccc(-c2ccc(Cc3ccc(O[C@H]4OC[C@H](O)[C@H](O)[C@H]4O)cc3)cc2)cc1 [Example 52, (2R,3R,4S,5S)-2-(4-((4'-isopropyl-[1,1'-biphenyl]-4-yl)methyl)phenoxy)tetrahydro-2H-pyran-3,4,5-triol] | 2 | 3.6 |  |  |  |
| CC(C)c1ccc(Oc2cccc(O[C@H]3OC[C@H](O)[C@H](O)[C@H]3O)c2)cc1 [Example 54, (2R,3R,4S,5S)-2-(3-(4-isopropylphenoxy)phenoxy)tetrahydro-2H-pyran-3,4,5-triol] | 1 | 1.5 |  |  |  |
| COc1ccc(Oc2ccc(O[C@H]3OC[C@H](O)[C@H](O)[C@H]3O)cc2)cc1 [Example 55, (2R,3R,4S,5S)-2-(4-(4-methoxyphenoxy)phenoxy)tetrahydro-2H-pyran-3,4,5-triol] | 1.8 | 2.9 |  |  |  |
| CC(C)c1ccc(Oc2ccc(O[C@H]3OC[C@H](O)[C@H](O)[C@H]3O)c(Cl)c2)cc1 [Example 57, (2R,3R,4S,5S)-2-(2-chloro-4-(4-isopropylphenoxy)phenoxy)tetrahydro-2H-pyran-3,4,5-triol] | 3.2 | 2.8 | more than threefold |  |  |
| CC(C)c1ccc(Oc2ccc(O[C@H]3OC[C@H](F)[C@H](O)[C@H]3O)cc2)cc1 [Example 58, (2R,3R,4R,5S)-5-fluoro-2-(4-(4-isopropylphenoxy)phenoxy)tetrahydro-2H-pyran-3,4-diol] | 2.6 | 2.2 |  |  |  |
| CC(C)c1ccc(Oc2ccc(O[C@H]3O[C@H](CO)[C@H](O)[C@H](O)[C@H]3O)cc2)cc1 [Example 59, (2R,3R,4S,5R,6R)-2-(hydroxymethyl)-6-(4-(4-isopropylphenoxy)phenoxy)tetrahydro-2H-pyran-3,4,5-triol] | 1.8 | 2.8 |  |  |  |
| CO[C@@H]1[C@@H](O)[C@@H](Oc2ccc(Oc3ccc(C(C)C)cc3)cc2)OC[C@@H]1O [Example 60, (2R,3R,4S,5S)-2-(4-(4-isopropylphenoxy)phenoxy)-4-methoxytetrahydro-2H-pyran-3,5-diol] | 2.3 | 1.6 |  |  |  |
| CO[C@H]1CO[C@H](Oc2ccc(Oc3ccc(C(C)C)cc3)cc2)[C@H](O)[C@H]1O [Example 61, (2R,3R,4R,5S)-2-(4-(4-isopropylphenoxy)phenoxy)-5-methoxytetrahydro-2H-pyran-3,4-diol] | 1.1 | 1.3 |  |  |  |
| CO[C@H]1[C@@H](Oc2ccc(Oc3ccc(C(C)C)cc3)cc2)OC[C@H](O)[C@@H]1O [Example 62, (3S,4S,5R,6R)-6-(4-(4-isopropylphenoxy)phenoxy)-5-methoxytetrahydro-2H-pyran 3,4-diol] | 2.3 | 2.2 |  |  |  |
| CC(C)c1ccc(Oc2ccc(O[C@H]3OC[C@H](O)[C@H](O)[C@H]3F)cc2)cc1 [Example 63, (3S,4S,5R,6R)-5-fluoro-6-(4-(4-isopropylphenoxy)phenoxy)tetrahydro-2H-pyran-3,4-diol] | 2.4 | 2.3 |  |  |  |
| CC(C)c1ccc(Oc2ccc(O[C@H]3OC[C@@H](F)[C@H](O)[C@H]3O)cc2)cc1 [Example 64, (2R,3R,4R,5R)-5-fluoro-2-(4-(4-isopropylphenoxy)phenoxy)tetrahydro-2H-pyran-3,4-diol] | 2.4 | 2.3 |  |  |  |
| CC(C)c1ccc(Oc2ccc(O[C@H]3OC[C@H](O)[C@H](O)[C@@H]3F)cc2)cc1 [Example 65, (3S,4S,5S,6R)-5-fluoro-6-(4-(4-isopropylphenoxy)phenoxy)tetrahydro-2H-pyran-3,4-diol] | 2.6 | 2.4 |  |  |  |
| CC(C)c1ccc(Oc2ccc(O[C@@H]3C[C@@H](O)[C@@H](O)CO3)cc2)cc1 [Example 66, (3S,4R,6R)-6-(4-(4-isopropylphenoxy)phenoxy)tetrahydro-2H-pyran-3,4-diol] | 2.9 | 2.2 |  |  |  |
| CC(C)c1ccc(Oc2ccc(O[C@H]3OC[C@@H](O)[C@H](O)[C@H]3O)c(Cl)c2)cc1 [Example 67, (2R,3R,4S,5R)-2-(2-chloro-4-(4-isopropylphenoxy)henoxy)tetrahydro-2H-pyran-3,4,5-triol] | 3.5 | 2.6 | more than threefold |  |  |
| CC(C)c1ccc(Oc2ccc(O[C@H]3OC[C@H](O)[C@H](O)[C@H]3O)c(F)c2)cc1 [Example 68, (2R,3R,4S,5S)-2-(2-fluoro-4-(4-isopropylphenoxy)phenoxy)tetrahydro-2H-pyran-3,4,5-triol] | 4.3 | 4.4 | more than threefold |  |  |
| CC(C)c1ccc(Oc2ccc(O[C@H]3OC[C@H](O)[C@H](O)[C@H]3N=[N+]=[N-])cc2)cc1 [Example 69, (3S,4R,5R,6R)-5-azido-6-(4-(4-isopropylphenoxy)phenoxy) tetrahydro-2H-pyra-3,4-diol] | 1.7 | 3 |  |  |  |
| CC(C)c1ccc(Oc2ccc(O[C@H]3OC[C@H](O)[C@H](O)[C@H]3N)cc2)cc1 [Example 70, (3S,4R,5R,6R)-5-amino-6-(4-(4-isopropylphenoxy)phenoxy)tetrahydro-2H-pyran-3,4-diol] | 1.2 | 3.1 |  |  |  |
| COc1ccc(C(=O)c2ccc(O[C@H]3OC[C@H](O)[C@H](O)[C@H]3O)cc2)cc1 [Example 71, (4-methoxyphenyl)(4-(((2R,3R,4S,5S)-3,4,5-trihydroxytetrahydro-2H-pyran-2-yl)oxy)phenyl)methanone] | 1.3 | 2 |  |  |  |
| N#Cc1ccc(C(=O)c2ccc(O[C@@H]3OC[C@H](O)[C@H](O)[C@H]3O)cc2)cc1 [Example 72, 4-(4-(((2S,3R,4S,5S)-3,4,5-trihydroxytetrahydro-2H-pyran-2-yl)oxy)benzoyl)benzonitrile] | 1 | 1.3 |  |  |  |
| CC[C@H]1CC[C@H](Cc2ccc(O[C@H]3OC[C@H](O)[C@H](O)[C@H]3O)cc2)CC1 [Example 73, (2R,3R,4S,5S)-2-(4-(((1R,4R)-4-ethylcyclohexyl)methyl)phenoxy)tetrahydro-2H-pyran-3,4,5-triol] | 2.1 | 3 |  |  |  |
| CC(C)[C@H]1CC[C@H](Cc2ccc(O[C@H]3OC[C@H](O)[C@H](O)[C@H]3O)cc2)CC1 [Example 74, (2R,3R,4S,5S)-2-(4-(((1R,4R)-4-isopropylcyclohexyl)methyl)phenoxy)tetrahydro-2H-pyran-3,4,5-triol] | 1.9 | 3 |  |  |  |
| O[C@@H]1[C@@H](O)[C@H](Oc2ccc(CN3CCCC3)cc2)OC[C@@H]1O [Example 75, (2S,3R,4S,5S)-2-(4-(pyrrolidin-1-ylmethyl)phenoxy)tetrahydro-2H-pyran-3,4,5-triol] |  |  |  | 1 | 1 |
| O[C@@H]1[C@@H](O)[C@H](Oc2ccc(CN3CCOCC3)cc2)OC[C@@H]1O [Example 76, (2S,3R,4S,5S)-2-(4-(morpholinomethyl)phenoxy)tetrahydro-2H-pyran-3,4,5-triol] |  |  |  | < 1 | 1 |
| COc1ccc(Cc2ccc(O[C@H]3OC[C@H](O)[C@H](O)[C@H]3N=[N+]=[N-])cc2)cc1 [Example 77, (3S,4R,5R,6R)-5-azido-6-(4-(4-methoxybenzyl)phenoxy)tetrahydro-2H-pyran-3,4-diol] |  |  |  | 1 | 1.3 |
| COc1ccc(Cc2ccc(O[C@H]3OC[C@H](O)[C@H](O)[C@H]3N)cc2)cc1 [Example 78] |  |  |  | 12 | 2.4 |
| COc1ccc(Cc2ccc(O[C@H]3OC[C@H](O)[C@H](O)[C@H]3OC(=O)CCCCCCCCCN)cc2)cc1 [Example 79, (2R,3R,4S,5S)-4,5-dihydroxy-2-(4-(4-methoxybenzyl)phenoxy)tetrahydro-2H-pyran-3-yl 10-aminodecanoate] |  |  |  | 1 | 1.7 |
